Experimental data taken from patent EP4467141A1, “PYRAZOLO-QUINOLINES AS SELECTIVE INHIBITORS OF GENOTOXIC STRESS-INDUCED IKK/NF- KB PATHWAYS FOR CANCER THERAPY” (Max-Delbrück-Centrum für Molekulare Medizin in der …, priority 2023, dated 2024).

Key:
Test in all cases: Kinase panel study
Type in all cases: biochemical
Settings in all cases: read-out: Percentage of inhibition; for inhibition at 1 µM: 1000nM; for inhibition at 10 µM: 10000nM
NEK9 = target: T1, NEK9 (Homo sapiens, UniProt Q8TD19)
T1 construct: purchased Thermo Fisher Scientific
T1 sequence (Q8TD19 1-979): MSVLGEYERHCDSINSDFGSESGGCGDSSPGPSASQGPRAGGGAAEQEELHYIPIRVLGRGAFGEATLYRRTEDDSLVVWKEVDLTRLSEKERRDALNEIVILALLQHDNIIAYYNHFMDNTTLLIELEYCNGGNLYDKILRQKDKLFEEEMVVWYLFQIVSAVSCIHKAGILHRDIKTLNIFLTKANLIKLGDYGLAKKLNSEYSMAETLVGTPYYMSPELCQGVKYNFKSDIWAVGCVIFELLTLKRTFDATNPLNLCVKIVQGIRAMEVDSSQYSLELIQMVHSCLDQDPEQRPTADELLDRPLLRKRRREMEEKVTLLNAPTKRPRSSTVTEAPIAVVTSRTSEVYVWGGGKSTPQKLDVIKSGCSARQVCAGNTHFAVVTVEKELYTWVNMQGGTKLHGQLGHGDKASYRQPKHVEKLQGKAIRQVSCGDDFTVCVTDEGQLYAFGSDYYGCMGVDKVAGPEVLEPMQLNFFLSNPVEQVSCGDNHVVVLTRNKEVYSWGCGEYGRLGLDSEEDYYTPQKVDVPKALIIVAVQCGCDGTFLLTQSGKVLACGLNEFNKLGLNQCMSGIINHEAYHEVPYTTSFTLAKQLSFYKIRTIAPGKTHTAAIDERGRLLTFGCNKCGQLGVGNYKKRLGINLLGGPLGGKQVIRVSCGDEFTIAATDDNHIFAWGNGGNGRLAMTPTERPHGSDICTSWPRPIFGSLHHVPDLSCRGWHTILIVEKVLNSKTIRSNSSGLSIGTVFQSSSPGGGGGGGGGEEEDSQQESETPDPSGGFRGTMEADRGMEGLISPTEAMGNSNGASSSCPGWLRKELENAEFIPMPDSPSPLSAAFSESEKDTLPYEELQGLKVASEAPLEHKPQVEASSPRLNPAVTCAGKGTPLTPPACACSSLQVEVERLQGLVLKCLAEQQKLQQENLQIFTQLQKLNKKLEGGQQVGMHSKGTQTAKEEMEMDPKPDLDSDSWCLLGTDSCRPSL
Method in brief: (§1)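 Readout is percentage kinase inhibition. Testing used 1 µM or 10 µM compound in externally run ZLyte/Adapta in vitro assays, and IC50 values were derived within the same panel.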

FLT3 D835Y = target: T2, FLT3 D835Y (Homo sapiens, UniProt P36888, D835Y)
T2 construct: purchased Thermo Fisher Scientific
T2 sequence (P36888 27-993 D835Y): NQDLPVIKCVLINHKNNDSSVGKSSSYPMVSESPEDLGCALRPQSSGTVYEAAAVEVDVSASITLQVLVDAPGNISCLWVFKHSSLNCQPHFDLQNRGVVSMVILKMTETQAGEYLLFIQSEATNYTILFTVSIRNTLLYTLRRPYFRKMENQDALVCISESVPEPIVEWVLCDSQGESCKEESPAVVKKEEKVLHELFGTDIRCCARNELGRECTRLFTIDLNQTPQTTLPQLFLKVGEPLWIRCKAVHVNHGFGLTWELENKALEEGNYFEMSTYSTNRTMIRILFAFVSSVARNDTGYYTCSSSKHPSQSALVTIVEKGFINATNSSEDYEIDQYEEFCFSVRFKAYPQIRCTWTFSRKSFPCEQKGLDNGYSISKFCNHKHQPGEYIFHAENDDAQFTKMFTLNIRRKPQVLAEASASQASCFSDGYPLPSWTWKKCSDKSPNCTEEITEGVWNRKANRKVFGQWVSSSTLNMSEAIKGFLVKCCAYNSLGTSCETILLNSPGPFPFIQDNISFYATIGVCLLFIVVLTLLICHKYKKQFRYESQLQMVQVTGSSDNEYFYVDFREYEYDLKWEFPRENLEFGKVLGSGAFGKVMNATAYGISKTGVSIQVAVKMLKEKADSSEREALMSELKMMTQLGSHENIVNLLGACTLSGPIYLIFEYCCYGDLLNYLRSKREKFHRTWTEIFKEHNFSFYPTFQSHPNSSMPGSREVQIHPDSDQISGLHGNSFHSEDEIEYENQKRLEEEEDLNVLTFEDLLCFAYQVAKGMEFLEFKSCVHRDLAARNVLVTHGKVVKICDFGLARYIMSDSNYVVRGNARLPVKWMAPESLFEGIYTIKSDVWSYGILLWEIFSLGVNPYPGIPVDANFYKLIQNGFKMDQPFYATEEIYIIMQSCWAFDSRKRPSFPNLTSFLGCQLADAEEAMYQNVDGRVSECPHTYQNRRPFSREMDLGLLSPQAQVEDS
Method in brief: as §1

PAK7 (KIAA1264) = target: T3, PAK7 (KIAA1264) (Homo sapiens, UniProt Q9P286)
T3 construct: purchased Thermo Fisher Scientific
Method in brief: as §1

T3 sequence (Q9P286 whole entry): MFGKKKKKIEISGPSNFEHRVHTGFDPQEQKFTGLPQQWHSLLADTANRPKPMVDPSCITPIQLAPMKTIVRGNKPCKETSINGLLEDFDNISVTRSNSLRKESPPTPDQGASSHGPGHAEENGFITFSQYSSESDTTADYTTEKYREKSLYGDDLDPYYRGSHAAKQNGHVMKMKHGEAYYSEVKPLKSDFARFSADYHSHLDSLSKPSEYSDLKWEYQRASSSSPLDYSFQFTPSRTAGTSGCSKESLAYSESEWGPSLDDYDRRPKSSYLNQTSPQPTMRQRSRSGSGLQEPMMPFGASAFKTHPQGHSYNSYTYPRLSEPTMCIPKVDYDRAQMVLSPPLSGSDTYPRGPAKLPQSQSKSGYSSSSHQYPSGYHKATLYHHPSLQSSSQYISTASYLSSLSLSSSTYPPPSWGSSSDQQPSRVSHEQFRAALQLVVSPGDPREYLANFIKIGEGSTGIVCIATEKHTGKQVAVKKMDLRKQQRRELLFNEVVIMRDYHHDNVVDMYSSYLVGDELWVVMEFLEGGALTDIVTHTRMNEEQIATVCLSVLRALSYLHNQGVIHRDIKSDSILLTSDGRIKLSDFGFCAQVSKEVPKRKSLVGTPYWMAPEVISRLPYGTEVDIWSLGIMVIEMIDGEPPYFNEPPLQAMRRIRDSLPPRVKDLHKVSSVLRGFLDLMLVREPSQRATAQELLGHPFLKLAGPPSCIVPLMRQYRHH

| SMILES | inhibition at 1 µM (NEK9) [%] | inhibition at 10 µM (NEK9) [%] | inhibition at 1 µM (FLT3 D835Y) [%] | inhibition at 10 µM (FLT3 D835Y) [%] | inhibition at 1 µM (PAK7 (KIAA1264)) [%] | inhibition at 10 µM (PAK7 (KIAA1264)) [%] |
| --- | --- | --- | --- | --- | --- | --- |
| COc1ccc2cc3c(N)nn(C(=O)c4cccc(N(C)C)c4)c3nc2c1 [MW05, (3-Amino-7-methoxypyrazolo[3,4-b]quinolin-1-yl)-[3-(dimethylamino)phenyl]methanone] | 6 | 5 | 10 | 15 | 15 | 13 |
| COc1ccc2c(c1OC)c(=O)n1c3ccc(O)cc3c3ccnc2c31 [MW01, 5-Hydroxy-10,11-dimethoxy-9H-benzo[c]indolo[3,2,1-ij][1,5]naphthyridin-9-one] | 4 | 9 | 81 | 92 | 2 | 11 |
